Measured values published in the supplement of paper PMC10307832.

Assays:
Assay in all cases: relative viability (nuclei count vs DMSO), 5 days (fraction); higher = more cells survive
[1] = compound: NC(=O)c1ccc(N(C(N)=O)c2c(F)cccc2F)nc1-c1ccc(F)cc1F [VX-702] + Cc1nc(NC(=O)N2CCC[C@H]2C(N)=O)sc1-c1ccnc(C(C)(C)C(F)(F)F)c1 [Alpelisib] (partner 2 µM)
In short: (§1)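 Lung cancer cell lines in 1536-well plates got either a single drug or a fixed anchor-drug dose together with five library-drug doses (not always all listed) in √10 steps, by pin tool, on the day after seeding. Nuclei were counted after 5 days, and relative viability is the treated-to-vehicle ratio of nuclei counts. Values are medians of duplicate plates.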

[2] = compound: NC(=O)c1ccc(N(C(N)=O)c2c(F)cccc2F)nc1-c1ccc(F)cc1F [VX-702] + O=C(CCCCCCC(=O)Nc1ccccc1)NO [Vorinostat] (partner 1 µM)
In short: as §1

[3] = compound: NC(=O)c1ccc(N(C(N)=O)c2c(F)cccc2F)nc1-c1ccc(F)cc1F [VX-702] + C[C@]1(O)C[C@@H](c2nc(-c3ccc4ccc(-c5ccccc5)nc4c3)c3c(N)nccn32)C1 [Linsitinib] (partner 1 µM)
In short: as §1

[4] = compound: NC(=O)c1ccc(N(C(N)=O)c2c(F)cccc2F)nc1-c1ccc(F)cc1F [VX-702] + COc1cccc2cc(-c3nc([C@H]4CC[C@H](C(=O)O)CC4)n4ncnc(N)c34)[nH]c12 [OSI-027] (partner 0.5 µM)
In short: as §1

Cell Line	relative viability ([1]; first compound 0.02 µM)	relative viability ([1]; first compound 0.2 µM)	relative viability ([1]; first compound 0.6325 µM)	relative viability ([1]; first compound 2 µM)	relative viability ([2]; first compound 0.02 µM)	relative viability ([2]; first compound 0.2 µM)	relative viability ([2]; first compound 0.6325 µM)	relative viability ([2]; first compound 2 µM)	relative viability ([3]; first compound 0.02 µM)	relative viability ([3]; first compound 0.2 µM)	relative viability ([3]; first compound 0.6325 µM)	relative viability ([3]; first compound 2 µM)	relative viability ([4]; first compound 0.02 µM)	relative viability ([4]; first compound 0.2 µM)	relative viability ([4]; first compound 0.6325 µM)	relative viability ([4]; first compound 2 µM)
NCI-H23	0.659	0.65	0.683	0.998	0.491	0.566	0.575	0.669	0.517	0.528	0.545	0.754	0.604	0.643	0.688	0.559
NCI-H322M	0.873	0.695	0.779	0.894	0.921	0.874	0.854	0.93	0.999	0.905	0.918	0.883	0.567	0.517	0.566	0.62
NCI-H358	0.804	0.778	0.777	0.973	0.675	0.601	0.669	0.972	0.748	0.728	0.613	0.963	0.867	0.845	0.711	0.794
NCI-H441	0.847	0.537	0.727	0.759	0.876	0.616	0.637	0.76	0.699	0.429	0.369	0.747	0.564	0.547	0.5	0.544
NCI-H460	0.465	0.46	0.448	0.487	0.889	0.692	0.769	0.925	0.879	0.837	0.825	0.814	0.712	0.644	0.693	0.55
NCI-H520	0.919	0.788	0.796	1.06	0.744	0.649	0.691	0.74	0.962	0.936	0.915	0.925	0.321	0.287	0.268	0.23
NCI-H596	0.437	0.436	0.509	0.426	0.636	0.439	0.637	0.581	0.996	1.1	1.02	1.1	0.807	0.737	0.797	0.823
NCI-H647	1.29	1	1.08	1.14	0.563	0.499	0.304	0.897	1.21	0.941	1.18	1.4	0.719	0.997	0.709	0.662
NCI-H650	1.11	–	1.15	1.34	0.607	0.309	0.494	0.609	0.927	–	1.07	1.12	0.562	–	0.567	0.595
NCI-H661	0.536	0.364	0.338	0.997	0.775	0.786	0.76	0.816	0.523	0.587	0.5	0.826	0.708	0.702	0.748	0.893
NCI-H727	0.504	0.552	0.621	0.634	1.25	1.28	1.18	1.39	0.516	0.271	0.259	0.306	0.721	0.614	0.543	0.642
NCI-H838	0.965	0.893	0.95	1.23	0.737	0.702	0.751	0.787	1.01	0.959	0.977	1.2	0.394	0.356	0.448	0.409
NCI-H1355	0.778	0.807	0.799	0.876	0.694	0.605	0.689	0.821	0.76	0.802	0.749	0.866	0.419	0.427	0.371	0.405
NCI-H1395	1.2	1.11	0.967	1.38	0.701	0.686	0.683	0.884	0.965	1.28	0.976	1.47	0.725	0.642	0.663	0.677
NCI-H1437	0.943	0.858	0.911	1.14	0.904	0.827	0.863	1.05	1.1	1.02	1.09	1.3	0.885	0.843	0.977	0.987
NCI-H1651	0.928	0.948	0.882	1.16	0.536	0.558	0.53	0.586	0.876	1.09	0.967	1	0.733	0.685	0.786	0.652
NCI-H1666	1	0.862	0.88	0.909	1.07	0.989	0.993	0.979	0.878	0.86	0.747	0.855	0.937	–	0.789	0.635
NCI-H1734	0.626	0.596	0.588	0.559	0.812	0.759	0.781	0.732	0.977	0.769	0.794	0.763	0.635	0.591	0.527	0.45
NCI-H1755	0.907	0.891	0.925	1.01	0.929	0.748	0.731	0.877	1.02	0.967	1.01	0.725	0.857	0.829	0.721	0.718
NCI-H1793	0.822	0.583	0.545	0.959	0.669	–	0.757	0.591	0.815	0.73	0.687	0.974	0.292	0.217	0.235	0.218
